The record followed here is patent US20260297042A1, “BIARYLAMIDE DERIVATIVES AND THEIR USE AS PKMYT1 INHIBITORS” (CANCER RESEARCH TECHNOLOGY LIMITED, priority 2023, published 2026).

For one test, the target named is T1, Human PKMYT1 (Homo sapiens, UniProt Q99640).
T1 construct: Human PKMYT1 75-362 was cloned as a TEV cleavable 6xHis fusion; 6xHis (TEV cleavable) (cleaved yes); made in house; host or cells: bacterial cells
T1 sequence (Q99640 75-362): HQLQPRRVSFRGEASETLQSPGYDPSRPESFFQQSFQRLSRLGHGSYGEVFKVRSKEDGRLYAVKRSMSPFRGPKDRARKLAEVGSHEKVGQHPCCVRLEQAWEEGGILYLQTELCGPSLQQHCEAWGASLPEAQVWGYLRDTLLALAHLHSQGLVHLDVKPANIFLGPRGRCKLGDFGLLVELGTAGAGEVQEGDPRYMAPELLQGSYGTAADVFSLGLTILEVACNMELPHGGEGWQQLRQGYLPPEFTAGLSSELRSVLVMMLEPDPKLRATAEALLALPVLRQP
The test is described as follows: PKMYT1 biochemical ADP-Glo enzymatic assay. The note with it: ADP-Glo. An outline of the steps:
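Compounds were titrated over 10 points (3-fold steps), then 15 nM purified PKMYT1 kinase domain (aa 75-362) and 500 µM ATP were added in pH 7.5 HEPES buffer. After 60 min at 26 °C, remaining ATP was depleted and ADP converted to luminescence for IC50 fitting.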
Background: ADP-Glo first removes unused ATP, then detects ADP through luciferase.

Another test concerns the target T2, WEE1 (Homo sapiens, UniProt P30291).
T2 construct: purchased Thermo Fisher PR7373A
The test is described as follows: Selectivity versus WEE1 assay (ADP-Glo enzymatic assay). It is filed as biochemical. The conditions noted are these: for IC50: ADP-Glo; for PKMYT1 vs. WEE1 selectivity: fold difference in selectivity for PKMYT1 over WEE1. The method in brief: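 Compounds were pre-dispensed, enzyme (15 nM final) was added in pH 7.5 HEPES buffer, and ATP ([…]) then started a 60 min incubation at 26° C. Afterwards ADP-Glo reagents were added in turn and luminescence was measured to derive IC50 values.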

Setting [1] is: 15 nM PKMYT1 kinase domain, 500 µM ATP, 60 minutes at 26° C., banded.
The mark [2] stands for this setting: 15 nM WEE1, 60 minutes at 26° C., banded.
Setting [3] is: banded, ">N" = at least in this band but could be higher.
[4] abbreviates: PKMYT1 kinase domain 15 nM, banded values.

T2 sequence (P30291 whole entry): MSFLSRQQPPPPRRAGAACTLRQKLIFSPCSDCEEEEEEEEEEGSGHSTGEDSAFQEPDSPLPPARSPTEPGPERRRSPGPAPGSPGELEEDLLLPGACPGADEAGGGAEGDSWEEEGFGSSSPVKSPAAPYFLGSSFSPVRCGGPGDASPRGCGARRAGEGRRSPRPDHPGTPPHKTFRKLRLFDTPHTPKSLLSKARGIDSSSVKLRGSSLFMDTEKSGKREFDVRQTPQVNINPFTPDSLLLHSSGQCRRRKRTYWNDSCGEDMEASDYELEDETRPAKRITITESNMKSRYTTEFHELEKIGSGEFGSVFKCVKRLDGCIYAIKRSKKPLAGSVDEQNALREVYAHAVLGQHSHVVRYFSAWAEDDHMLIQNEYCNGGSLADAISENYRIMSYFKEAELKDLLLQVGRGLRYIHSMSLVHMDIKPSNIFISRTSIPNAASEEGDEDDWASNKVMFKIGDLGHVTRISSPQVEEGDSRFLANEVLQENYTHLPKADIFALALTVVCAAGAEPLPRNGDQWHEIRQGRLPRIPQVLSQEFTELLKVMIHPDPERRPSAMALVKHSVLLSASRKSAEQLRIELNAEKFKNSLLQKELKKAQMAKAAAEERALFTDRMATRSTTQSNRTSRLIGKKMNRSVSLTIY

What is called IC50 is the point on the concentration scale where inhibition reaches its midpoint. A high value points to a need for much substance. `Cc1ccc(O)c(C)c1NC(=O)c1cnc(Nc2ccn([C@@H]3CCN(C(=O)Cc4cccnc4)C3)n2)s1` [BAA-102]: the IC50 against Human PKMYT1 (setting [1]) is 50 to 1000 nM; on WEE1 (setting [2]), greater than 11000 nM. Further, the “PKMYT1 vs. WEE1 selectivity” value on WEE1 (setting [3]) is “>Y (1000-5000 fold)”.

For `CCN(CCO)C(=O)Cn1cc(C)c(Nc2ncc(C(=O)Nc3c(C)ccc(O)c3C)s2)n1` [BAA-535, 2-((1-(2-(Ethyl(2-hydroxyethyl)amino)-2-oxoethyl)-4-methyl-1H-pyrazol-3-yl)amino)-N-(3-hydroxy-2,6-dimethylphenyl)thiazole-5-carboxamide], the half-maximal inhibitory concentration (IC50) against Human PKMYT1 (setting [4]) is less than 50 nM; at WEE1 (WEE1 15 nM, banded values) it was 1000 to 11000 nM. For the same compound, on WEE1 (banded), the “PKMYT1 vs. WEE1 selectivity” value is reported as “X (100-<1000 fold)”.

Take `Cn1ccc(Nc2ncc(C(=O)Nc3c(F)ccc(O)c3Cl)s2)n1` [BAA-480, N-(2-Chloro-6-fluoro-3-hydroxyphenyl)-2-((1-methyl-1H-pyrazol-3-yl)amino)thiazole-5-carboxamide]: the IC50 on Human PKMYT1 (setting [4]) is 50 to 1000 nM; against WEE1 (WEE1 15 nM, banded values) it was greater than 11000 nM. The “PKMYT1 vs. WEE1 selectivity” value on WEE1 (banded) was “X (100-<1000 fold)”.

On to `Cc1ccc(O)c(C)c1NC(=O)c1cnc(Nc2cc(C)n(CCC(=O)O)n2)s1` [BAA-241, 3-(3-((5-((3-hydroxy-2,6-dimethylphenyl)carbamoyl)thiazol-2-yl)amino)-5-methyl-1H-pyrazol-1-yl)propanoic acid], for which the IC50 was 50 to 1000 nM against Human PKMYT1 (setting [1]) and greater than 11000 nM at WEE1 (setting [2]). Also, the “PKMYT1 vs. WEE1 selectivity” value at WEE1 (setting [3]) is on record as “X (100-<1000 fold)”.

As for `CCOC(=O)c1oc(Nc2ncc(C(=O)Nc3c(C)ccc(O)c3C)s2)nc1C` [BAA-446, ethyl 2-((5-((3-hydroxy-2,6-dimethylphenyl)carbamoyl)thiazol-2-yl)amino)-4-methyloxazole-5-carboxylate], the 50% inhibitory concentration (IC50) against Human PKMYT1 (setting [4]) was 50 to 1000 nM; on WEE1 (WEE1 15 nM, banded values), greater than 11000 nM. At WEE1 (banded), the “PKMYT1 vs. WEE1 selectivity” value was “X (100-<1000 fold)”.

Turning to `Cc1ccc(O)c(C)c1NC(=O)c1cnc(Nc2nn(-c3ccc(C(F)(F)F)nc3)cc2Cl)s1` [BAA-382, 2-((4-chloro-1-(6-(trifluoromethyl)pyridin-3-yl)-1H-pyrazol-3-yl)amino)-N-(3-hydroxy-2,6-dimethylphenyl) thiazole-5-carboxamide], the IC50 against Human PKMYT1 (setting [1]) was 50 to 1000 nM; against WEE1 (setting [2]), greater than 11000 nM. Further, at WEE1 (setting [3]), the “PKMYT1 vs. WEE1 selectivity” value is reported as “X (100-<1000 fold)”.

With `Cc1cc(Nc2ncc(C(=O)Nc3c(C)ccc(O)c3C)s2)n(CC(C)C)n1` [BAA-238, N-(3-hydroxy-2,6-dimethylphenyl)-2-((1-isobutyl-3-methyl-1H-pyrazol-5-yl)amino)thiazole-5-carboxamide], the IC50 was less than 50 nM on Human PKMYT1 (setting [1]) and greater than 11000 nM at WEE1 (setting [2]). Besides, the “PKMYT1 vs. WEE1 selectivity” value at WEE1 (setting [3]) is “Y (1000-5000 fold)”.

`CCN(CCS(C)(=O)=O)C(=O)Cn1cc(C)c(Nc2ncc(C(=O)Nc3c(C)ccc(O)c3C)s2)n1` [BAA-555, 2-((1-(2-(ethyl(2-(methylsulfonyl)ethyl)amino)-2-oxoethyl)-4-methyl-1H-pyrazol-3-yl)amino)-N-(3-hydroxy-2,6-dimethylphenyl)thiazole-5-carboxamide]: the concentration for half-maximal inhibition (IC50) at Human PKMYT1 (setting [4]) was less than 50 nM; on WEE1 (WEE1 15 nM, banded values), 1000 to 11000 nM. Also, at WEE1 (banded), the “PKMYT1 vs. WEE1 selectivity” value is listed as “Y (1000-5000 fold)”.

As for `Cc1ccc(O)c(C)c1NC(=O)c1cnc(Nc2nn(C)cc2C(N)=O)s1` [BAA-254, 2-((4-carbamoyl-1-methyl-1H-pyrazol-3-yl)amino)-N-(3-hydroxy-2,6-dimethylphenyl)thiazole-5-carboxamide], the IC50 was 50 to 1000 nM against Human PKMYT1 (setting [1]) and greater than 11000 nM against WEE1 (setting [2]). For the same compound, the “PKMYT1 vs. WEE1 selectivity” value at WEE1 (setting [3]) is “Y (1000-5000 fold)”.

Turning to `Cc1ccc(O)c(C)c1NC(=O)c1cnc(NCc2cn[nH]c2)s1` [BAA-360, 2-(((1H-pyrazol-4-yl)methyl)amino)-N-(3-hydroxy-2,6-dimethylphenyl) thiazole-5-carboxamide], the IC50 at Human PKMYT1 (setting [1]) is less than 50 nM; at WEE1 (setting [2]) it was greater than 11000 nM. Besides, the “PKMYT1 vs. WEE1 selectivity” value at WEE1 (setting [3]) was “Y (1000-5000 fold)”.

As for `Cc1ccc(O)c(C)c1NC(=O)c1cnc(Nc2cc3ccc(Cl)cn3n2)s1` [BAA-051, 2-[(6-chloropyrazolo[1,5-a]pyridin-2-yl)amino]-N-(3-hydroxy-2,6-dimethyl-phenyl)thiazole-5-carboxamide], the half-inhibitory concentration (IC50) at Human PKMYT1 (setting [1]) was 50 to 1000 nM; against WEE1 (setting [2]) it was greater than 11000 nM. On WEE1 (setting [3]), the “PKMYT1 vs. WEE1 selectivity” value is reported as “>X (100-<1000 fold)”.

On to `Cc1ccc(O)c(Br)c1NC(=O)c1cnc(Nc2ccn(CC(=O)N3CCCC3)n2)s1` [BAA-476], for which the IC50 against Human PKMYT1 (setting [4]) is less than 50 nM; against WEE1 (WEE1 15 nM, banded values) it was 1000 to 11000 nM. Also, at WEE1 (banded), the “PKMYT1 vs. WEE1 selectivity” value is “X (100-<1000 fold)”.

As for `Cc1ccc(O)c(C)c1NC(=O)c1cnc(Nc2ccn(CC(=O)N3CCC(F)(F)CC3)n2)s1` [BAA-136, 2-[[1-[2-(4,4-difluoro-1-piperidyl)-2-oxo-ethyl]pyrazol-3-yl]amino]-N-(3-hydroxy-2,6-dimethyl-phenyl)thiazole-5-carboxamide], the half-inhibitory concentration (IC50) at Human PKMYT1 (setting [1]) was less than 50 nM; against WEE1 (setting [2]), greater than 11000 nM. Also, at WEE1 (setting [3]), the “PKMYT1 vs. WEE1 selectivity” value is “Y (1000-5000 fold)”.

For the compound `Cc1ccc(O)c(C)c1NC(=O)c1cnc(Nc2cncc(-c3ccc(F)cc3)c2)s1` [BAA-305, 2-((5-(4-fluorophenyl)pyridin-3-yl)amino)-N-(3-hydroxy-2,6-dimethylphenyl)thiazole-5-carboxamide], the IC50 at Human PKMYT1 (setting [1]) is 1000 to 11000 nM; against WEE1 (setting [2]) it was greater than 11000 nM. Also, at WEE1 (setting [3]), the “PKMYT1 vs. WEE1 selectivity” value is reported as “W (10-<100 fold)”.

As to `Cc1ccc(O)c(C)c1NC(=O)c1cnc(Nc2ccn(CCCC(=O)O)n2)s1` [BAA-058, 4-[3-[[5-[(3-Hydroxy-2,6-dimethyl-phenyl)carbamoyl]thiazol-2-yl]amino]pyrazol-1-yl]butanoic acid], the IC50 was less than 50 nM against Human PKMYT1 (setting [1]) and greater than 11000 nM against WEE1 (setting [2]). Besides, the “PKMYT1 vs. WEE1 selectivity” value on WEE1 (setting [3]) was “X (100-<1000 fold)”.

For the compound `Cc1ccc(O)c(C)c1NC(=O)c1cnc(NCc2cccnc2)s1` [BAA-345, N-(3-hydroxy-2,6-dimethylphenyl)-2-((pyridin-3-ylmethyl)amino)thiazole-5-carboxamide], the 50% inhibitory concentration (IC50) on Human PKMYT1 (setting [1]) is 50 to 1000 nM; against WEE1 (setting [2]), greater than 11000 nM. Besides, the “PKMYT1 vs. WEE1 selectivity” value on WEE1 (setting [3]) was “Y (1000-5000 fold)”.

As to `Cc1ccc(O)c(C)c1NC(=O)c1cnc(Nc2cn(CC(=O)N3CCCC3)nc2C)s1` [BAA-558, N-(3-hydroxy-2,6-dimethylphenyl)-2-((3-methyl-1-(2-oxo-2-(pyrrolidin-1-yl)ethyl)-1H-pyrazol-4-yl)amino)thiazole-5-carboxamide], the IC50 against Human PKMYT1 (setting [4]) is 50 to 1000 nM; against WEE1 (WEE1 15 nM, banded values), greater than 11000 nM. Besides, the “PKMYT1 vs. WEE1 selectivity” value on WEE1 (banded) is recorded as “Y (1000-5000 fold)”.

Regarding `Cc1ccc(O)c(C)c1NC(=O)c1cnc(Nc2ccn([C@@H]3CCN(C(=O)C(C)(C)c4ccccc4)C3)n2)s1` [BAA-094], the IC50 on Human PKMYT1 (setting [1]) was 50 to 1000 nM; at WEE1 (setting [2]), greater than 11000 nM. Also, the “PKMYT1 vs. WEE1 selectivity” value on WEE1 (setting [3]) was “>X (100-<1000 fold)”.

As to `Cc1ccc(O)c(C)c1NC(=O)c1cnc(Nc2ccn([C@@H]3CCN(C(=O)C4CCOCC4)C3)n2)s1` [BAA-082], the IC50 against Human PKMYT1 (setting [1]) is 50 to 1000 nM; against WEE1 (setting [2]) it was greater than 11000 nM. At WEE1 (setting [3]), the “PKMYT1 vs. WEE1 selectivity” value was “>X (100-<1000 fold)”.

For the compound `Cc1ccc(O)c(C)c1NC(=O)c1cnc(Nc2ccn(CC(=O)NC(C)C)n2)s1` [BAA-189, N-(3-hydroxy-2,6-dimethyl-phenyl)-2-[[1-[2-(isopropylamino)-2-oxo-ethyl]pyrazol-3-yl]amino]thiazole-5-carboxamide], the IC50 against Human PKMYT1 (setting [1]) was 50 to 1000 nM; on WEE1 (setting [2]), greater than 11000 nM. Further, the “PKMYT1 vs. WEE1 selectivity” value on WEE1 (setting [3]) was “Y (1000-5000 fold)”.
